Assay results published in patent US20210179655A1, “Prodrugs of a JAK Inhibitor Compound for Treatment of Gastrointestinal Inflammatory Disease” (THERAVANCE BIOPHARMA R&D IP, LLC, priority 2015, published 2021).
Blank lines part the entries; values can stand above or below the compound they belong to.

Key:
[1] = Rat colon fecal homogenate stability; type: in vitro ADME; details: male, rat colon fecal homogenate supernatant, read-out: T½ (In vitro colonic stability, loss of pro-drug)
Experimental: The objective of this study was to determine the stability of the present compounds in rat colon fecal homogenate, i.e. the half-life for decomposition in the presence of the β-glucuronidase in rat colon feces.
Following sacrifice of a naïve male rat (˜300 g) by cardiac puncture exsanguination, the colon was ligated and removed to an anaerobic chamber (AS-580, Anaerobe Systems). The fecal content was removed within the chamber and was diluted 1:10 (1 gram to 9 mL phosphate buffer) and then homogenized using a handheld Omni Tissue Master. The fecal homogenate was centrifuged at 2000 g for 10 min to remove bulk and the supernatant was removed and used for the incubations.
Test articles and a positive control (sulfasalazine) were prepared as 10 mM DMSO stocks. The final substrate concentration of each assay was 10 μM (30 μM for compound 5). Reactions were started by adding a 5 μL aliquot of diluted test compound stock into 300 μL of rat fecal supernatant-homogenate. At 0, 15, 30, 60, 90, and 120 min post reaction initiation, a 50 μL aliquot was removed into 200 μL of acetonitrile with 3% formic acid and an internal standard molecule. All samples were centrifuged at 2000 g for 10 min after which 50 μL of supernatant was diluted into 150 μL of water for analysis on an LC-MS system. In vitro half-lives for loss of pro-drug were calculated as follows: (T½=0.693/elimination rate constant).

[2] = Metabolic stability of comparison compounds in rat colon content; type: in vitro ADME; details: 10 μM in rat colonic content, up to 120 min
Experimental: Colonic fecal content was harvested from a naïve male Sprague Dawley rat and was diluted 1:10 (1 gram to 9 mL phosphate buffer) and then homogenized using a handheld Omni Tissue Master. […] A 5 μL aliquot of diluted test compound was spiked into 300 μL of rat colonic content homogenate to begin the reaction at 37° C. Aliquots (50 μL) were removed from the incubation at the following time points (0, 15, 50, 85, and 120 min) and added into 200 μL of ACN with 3% formic acid and an internal standard molecule. […] All samples were centrifuged at 2000×g for 10 min after which 50 μL of supernatant was diluted into 150 μL of water and analyzed using a Thermo Q-Exactive LC-MS system. GraphPad Prism and Microsoft Excel were used to tabulate and plot the data.

[3] = tested on: oxazolone-induced colitis; test: Mouse model of oxazolone-induced colitis; type: in vivo
Experimental: Oxazolone-induced colitis is an experimental model that has a histological resemblance to human ulcerative colitis (Heller et al. […], 2002, 17, 629-638). Adult BALB/C mice (25-28 g, 9-12 weeks of age) from BioNeeds (India) were used in the assay. On day 1, animals were lightly anesthetized with isoflurane and the hairs between the shoulder were carefully removed before oxazolone (6 mg/mouse, 100 μL, 4:1 acetone: olive oil formulation) or vehicle solution was slowly applied for skin sensitization. Six days after skin sensitization, the mice were fasted overnight, anesthetized with ketamine and xylazine administered IP, and a 1 mL syringe filled with oxazolone solution, was inserted carefully ˜3.8 cm into the colon of the mouse. Animals were kept in a head down position and oxazolone (0.5 mg/50 μL/mouse in 50% ethanol) or 50% ethanol/saline was rectally instilled very slowly over a minute. The mice were held vertically (head down) for another minute to ensure that the entire oxazolone solution remained inside the colon. Drug treatment (PO, BID or TID) or vehicle was initiated the evening prior to the oxazolone intrarectal (IR) challenge. On both first (Day 1) and second (Day 2) days post-oxazolone IR challenge, the Disease Activity Index (DAI) was assessed by treatment-blinded experimenters for each mouse, according to the following subscores: stool consistency (0, normal; 2, loose; 4, diarrhea), gross bleeding and hemoccult test (0, absence; 2, blood tinged; 4, overt blood presence), and weight loss (0, none; 1, 1%-5%; 2, 6%-10%; 3, 11%-15%; 4, more than 15%); DAI=average of (stool consistency+blood presence+weight loss scores).
An area-under-the-curve (AUC) calculation based on total DAI scores was performed to track disease progression during the course of the experiment. AUC for each experimental group was calculated as: AUC=[(Day 1−Day 0)*Average (DAI Score of Day 0 & Day 1)]+[(Day 2−Day 1)*Average (DAI Score of Day 1 & Day 2)]. A Student's t-test compared the DAI AUC score of the vehicle/vehicle and vehicle/oxazolone groups to evaluate whether disease was induced following oxazolone treatment. This was followed by a one way ANOVA, with Dunnett's post hoc test, to compare the DAI AUC score of the vehicle/oxazolone and test compound/oxazolone groups. Statistical significance was defined by an α level set at p<0.05.

[4] = tested on: splenic NK cells; test: Immunosuppression effects in mouse splenic natural killer (NK) cells; type: in vivo; details: mouse, oral dosing for three days
Experimental: Adult male Balb/C mice (12-14 weeks of age) from Harlan were used for the study. […] Spleens were harvested 30 min or 3 h post last dose and crushed immediately for cell subtype staining. Prior to fixation, fluorophore-labelled antibodies for CD19 (FITC; B cells), CD3e (PE; pan T cells) and DX5 (APC; NK cells) were incubated with splenocyte samples from each animal to allow for simultaneous, multiple subtype % analysis on the flow cytometer. The number of total spleen cells for each animal was measured by Scepter™ 2.0 Handheld Automated Cell Counter.
The absolute number of lymphocyte subtype population (e.g., splenic B, T and NK cells) was calculated from the percentage of each subtype times total spleen cells for each animal. A one way ANOVA, with Dunnett's post hoc test, was used to compare the splenic lymphocytes number of the vehicle and test compound groups. The a level was set at p<0.05. Data were presented as the mean SEM for each group.

Structure (SMILES): Cc1cc(COC(=O)N(C)CCN(C)C(=O)n2ccc3c(N(C)[C@H]4CN(C(=O)CC#N)CC[C@H]4C)ncnc32)ccc1O[C@@H]1O[C@H](C(=O)O)[C@@H](O)[C@H](O)[C@H]1O [Compound 5, (2S,3S,4S,5R,6S)-6-(4-((((2-(4-(((3R,4R)-1-(2-cyanoacetyl)-4-methylpiperidin-3-yl)(methyl)amino)-N-methyl-7H-pyrrolo[2,3-d]pyrimidine-7-carboxamido)ethyl)(methyl)carbamoyl)oxy)methyl)-2-methylphenoxy)-3,4,5-trihydroxytetrahydro-2H-pyran-2-carboxylic acid]
half-life at 30 μM ([1]; 30 μM): 6 min

Structure (SMILES): CN(CCN(C)C(=O)OCc1ccc(O[C@@H]2O[C@H](C(=O)O)[C@@H](O)[C@H](O)[C@H]2O)c([N+](=O)[O-])c1)C(=O)Nc1ccc(O)c(C(=O)O)c1 [Compound C-1]
generation of active metabolite from the pro-drug [2]: failed to generate any measurable amounts

Structure (SMILES): Cc1cc(S(C)(=O)=O)ncc1-c1ccc2c(c1)cc(-c1cncc(F)c1C)n2C(=O)N(C)CCN(C)C(=O)OCc1ccc(O[C@@H]2O[C@H](C(=O)O)[C@@H](O)[C@H](O)[C@H]2O)c([N+](=O)[O-])c1 [Compound C-2]
generation of active metabolite from the pro-drug [2]: failed to generate any measurable amounts

Structure (SMILES): C[C@@H]1CCN(C(=O)CC#N)C[C@@H]1N(C)c1ncnc2[nH]ccc12 [Tofacitinib, 3-((3R,4R)-4-methyl-3-(methyl(7H-pyrrolo[2,3-d]pyrimidin-4-yl)amino)piperidin-1-yl)-3-oxopropanenitrile, reference compound]
In vivo efficacy (oxazolone colitis), effective dose ([3]; Effective dose that exhibits a comparable pharmacological effect in the oxazolone model compared to its vehicle): 30 mg/kg | Systemic functional activity (splenic NK depletion) [4]: 10 mg/kg

Further lines, with some results ahead:

half-life at 10 μM [1]: 3 to 8 min
Structure (SMILES): COc1cc(COC(=O)N(C)CCN(C)C(=O)n2ccc3c(N(C)[C@H]4CN(C(=O)CC#N)CC[C@H]4C)ncnc32)ccc1O[C@@H]1O[C@H](C(=O)O)[C@@H](O)[C@H](O)[C@H]1O [Compound 7, (2S,3S,4S,5R,6S)-6-(4-((((2-(4-(((3R,4R)-1-(2-cyanoacetyl)-4-methylpiperidin-3-yl)(methyl)amino)-N-methyl-7H-pyrrolo[2,3-d]pyrimidine-7-carboxamido)ethyl)(methyl)carbamoyl)oxy)methyl)-2-methoxyphenoxy)-3,4,5-trihydroxytetrahydro-2H-pyran-2-carboxylic acid]

half-life at 10 μM [1]: 7 min
Structure (SMILES): C[C@@H]1CCN(C(=O)CC#N)C[C@@H]1N(C)c1ncnc2c1ccn2C(=O)N(C)CCN(C)C(=O)OCc1ccc(O[C@@H]2O[C@H](C(=O)O)[C@@H](O)[C@H](O)[C@H]2O)c(Cl)c1 [Compound 6, (2S,3S,4S,5R,6S)-6-(2-chloro-4-((((2-(4-(((3R,4R)-1-(2-cyanoacetyl)-4-methylpiperidin-3-yl)(methyl)amino)-N-methyl-7H-pyrrolo[2,3-d]pyrimidine-7-carboxamido)ethyl)(methyl)carbamoyl)oxy)methyl)phenoxy)-3,4,5-trihydroxytetrahydro-2H-pyran-2-carboxylic acid]

half-life at 10 μM [1]: 1 to 13 min
Structure (SMILES): C[C@@H]1CCN(C(=O)CC#N)C[C@@H]1N(C)c1ncnc2c1ccn2C(=O)N(C)CCN(C)C(=O)OCc1ccc(O[C@@H]2O[C@H](C(=O)O)[C@@H](O)[C@H](O)[C@H]2O)cc1 [Compound 4, (2S,3S,4S,5R,6S)-6-(4-((((2-(4-(((3R,4R)-1-(2-cyanoacetyl)-4-methylpiperidin-3-yl)(methyl)amino)-N-methyl-7H-pyrrolo[2,3-d]pyrimidine-7-carboxamido)ethyl)(methyl)carbamoyl)oxy)methyl)phenoxy)-3,4,5-trihydroxytetrahydro-2H-pyran-2-carboxylic acid]
reversal of oxazolone-induced colitis (DAI AUC score) ([3]; separate experiment, 3, 10, and 30 mg/kg, PO, BID, similar magnitude to tofacitinib 30 mg/kg): significant reversal
